Data published in US4985449A, “N-benzoyl-N-pyridyloxy phenyl urea compounds and pesticide compositions containing them” (Ishihara Sangyo Kaisha Ltd., priority 1986, dated 1991).

Key:
Format in all cases: in vivo
[1] = system: house fly (Musca domestica); assay: Egg hatch inhibition test by the treatment of adults of house fly (Test Example 6); conditions: po, 100 μg/g in diet of adult females for 3 days, unhatched eggs assessed one day after collection, read-out: ratio of the egg hatch inhibition (REHI)
Experimental: Sugar and skim milk were mixed in a weight ratio of 1:1, and 2 g of the mixture was put into a Petri dish having a diameter of 5.5 cm. 0.5 ml of an acetone solution containing the active ingredient was added to the mixture in the Petri dish. After acetone evaporated, the treated mixture was thoroughly mixed, and the concentration of the active ingredient was adjusted to 100 μg/g. Twenty non-mating females of house fly (Musca domestica) were allowed to feed on the poisoned diet (the treated mixture) in a cage. After 3 days, the diet was changed to the untreated mixture, then 20 non-mating males were released into the cage for mating. On the 3rd day after release, a cup of the medium for rearing fly larvae was set in the cage for oviposition for 7 hours. The egg laid on the medium were collected and kept on the moistened filter paper in a Petri dish. One day later, unhatched eggs were assessed and the ratio of the egg hatch inhibition (REHI) was calculated by the following equation: [formula]

[2] = system: house mosquito (Cullex pipiens pallens); assay: Larvicidal test against larvae of house mosquito (Test Example 5); conditions: 216 h, 2.5 ppb, 9th day after release, 26° C.
Experimental: Two hundreds ml of a diluted solution containing 2.5 ppb of each active ingredient was poured into a jar and 20 larvae of house mosquito (Cullex pipiens pallens) were released into the jar. Then, the jar was kept in a constant temperature chamber with lightening at 26° C. Larvae were fed every other day with 1-2 mg of powdered feed. On the 9th day after the release, dead insects were counted, and the mortality was calculated in the same manner as in Test Example 2. The results are shown in […]

[3] = system: two-spotted spider mite (Tetranychus urticae); assay: Miticidal test against two-spotted spider mite (Test Example 1); conditions: 120 h, 5th day after treatment, larvae and nimphs on French bean, 26° C.
Source text: Each formulation containing an active ingredient was dispersed in water to obtain a dispersion of each active ingredient having a concentration of 800 or 200 ppm. Each of French bean seedlings with only on primary leaf left, was transplanted to a cup having a diameter of 7 cm and a height of 4 cm. About 30 larvae and […] of two-spotted spider mite (Tetranychus urticae) were infested to the leaf of the French bean. Then, the French bean was dipped in the dispersion having the concentration of 800 ppm or 200 ppm for about 10 seconds, then dried in air and kept in a constant temperature chamber with lightening at 26° C. On the 5th day after the treatment, dead mites were counted, and the mortality was calculated by the following equation: [formula]

[4] = system: house fly (Musca domestica); assay: Larvicidal test against larvae of house fly (Test Example 4); conditions: feed or water, 240 h, 10 ppm in feed, second instar larvae, 10th day after release, emerged adults counted
Experimental: Powder feed for test animals (manufactured by Oriental Kobo Kogyo K.K.) and bran were mixed in a weight ratio of 1:1 and pulverized, and 10 g of the mixture was packed in an ice cream cup. Each of the formulations containing the active ingredients, was dispersed in water, and 10 ml of the dispersion was added to the mixture in the ice cream cup and thoroughly mixed to adjust the concentration of the active ingredient to 10 ppm. Into the ice cream cup, 20 larvae of house fly (Musca domestica) in second instar were released, and kept in a constant temperature chamber with lightening at 26° C. On the 10th day after the release, the emerged adults were counted, and the mortality was calculated in accordance with the following equation. [formula]

Row | SMILES | inhibition at 100 µg/g [1] | mortality at 0.0025 ppm [2] | mortality at 800 ppm [3] | mortality at 10 ppm [4] | mortality at 200 ppm [3]
1 | CN(C(=O)NC(=O)c1c(F)cccc1F)c1cc(Cl)c(Oc2ncc(C(F)(F)F)cc2Cl)c(Cl)c1 [Compound No. 1, N-[3,5-dichloro-4-(3-chloro-5-trifluoromethyl-2-pyridyloxy)phenyl]-N'-(2,6difluorobenzoyl)-N-methylurea] | 100% | 100% | – | – | –
2 | CN(C(=O)NC(=O)c1c(F)cccc1F)c1ccc(Oc2ncc(C(F)(F)F)cc2Cl)c(F)c1F [Compound No. 2, N-[4-(3-chloro-5-trifluoromethyl-2-pyridyloxy)-2,3-difluorophenyl]-N'-(2,6, -difluorobenzoyl)-N-methylurea] | – | 90% | – | – | –
3 | CN(C(=O)NC(=O)c1c(F)cccc1F)c1ccc(Oc2ncc(C(F)(F)F)cc2Cl)c(F)c1 [Compound No. 3, N-{4-[3-chloro-5-trifluoromethyl-2-pyridyloxy]-3-fluorophenyl}-N'-(2,6-difluorobenzoyl)-N-methylurea] | 88% | 100% | – | – | –
4 | CN(C(=O)NC(=O)c1c(F)cccc1F)c1ccc(Oc2ccc(C(F)(F)F)cc2Cl)c(F)c1 [Compound No. 4, N-{4-[2-chloro-4-trifluoromethylphenoxy]-3-fluorophenyl}-N'-(2,6-difluorobenzoyl)-N-methylurea] | – | 100% | 90% | – | –
5 | COC(=O)c1cc(N(C)C(=O)NC(=O)c2c(F)cccc2F)cc(C)c1Oc1ncc(C(F)(F)F)cc1Cl [Compound No. 6] | – | – | – | 90% | –
6 | CN(C(=O)NC(=O)c1c(F)cccc1F)c1cc(F)c(-c2ccc(C(F)(F)F)cc2)cc1F [Compound No. 24] | 100% | – | – | 100% | –
7 | CN(C(=O)NC(=O)c1c(F)cccc1F)c1ccc(Oc2ccc(C(F)(F)F)cc2Cl)c(Cl)c1 [compound 12, N-[3-chloro-4-(2-chloro-4-trifluoromethylphenoxy)phenyl]-N'-(2,6-difluorobenzoyl)-N-methylurea] | 100% | – | 100% | 100% | 100%
8 | CN(C(=O)NC(=O)c1c(F)cccc1F)c1ccc(Oc2ccc(C(F)(F)F)cc2Cl)c(Cl)c1F [compound 13, N-[3-chloro-4-(2-chloro-4-trifluoromethylphenoxy)-2-fluorophenyl]-N'-(2,6-difluorobenzoyl)-N-methylurea] | 100% | – | – | 100% | 99%
